From ChEMBL document CHEMBL3244129, “Quinolone antimicrobial agents. 1. Versatile new synthesis of 1-alkyl-1,4-dihydro-4-oxo-3-quinolinecarboxylic acids” (1978)
Values after ≈ are worked out from the molar mass of the structure shown.

How the values were obtained:
[1] = tested on: Salmonella gallinarum; test: Antimicrobial activity against Salmonella gallinarum 9184 assessed as growth inhibition by agar dilution-streak method
[2] = tested on: Candida albicans; test: Antimicrobial activity against Candida albicans 10231 assessed as growth inhibition by agar dilution-streak method; assay type: functional
[3] = tested on: Mycolicibacterium smegmatis; test: Antimicrobial activity against Mycobacterium smegmatis 607 assessed as growth inhibition by agar dilution-streak method; assay type: functional
[4] = tested on: Staphylococcus aureus; test: Antimicrobial activity against Staphylococcus aureus ATCC […] assessed as growth inhibition by agar dilution-streak method; assay type: functional
[5] = tested on: Klebsiella pneumoniae; test: Antimicrobial activity against Klebsiella pneumoniae 10031 assessed as growth inhibition by agar dilution-streak method; assay type: functional
[6] = tested on: Escherichia coli; test: Antimicrobial activity against Escherichia coli 9637 assessed as growth inhibition by agar dilution-streak method; assay type: functional

Row | Compound | MIC [1] [µg/mL] | MIC [2] [µg/mL] | MIC [3] [µg/mL] | MIC [4] [µg/mL] | MIC [5] [µg/mL] | MIC [6] [µg/mL]
1 | CCn1c(C)c(C(=O)O)c(=O)c2cc3c(cc21)OCO3 | > 100 | > 100 | > 100 | > 100 | > 100 | > 100
2 | CCn1c(O)c(C(=O)O)c(=O)c2cc3c(cc21)OCO3 | > 100 | > 100 | > 100 | > 100 | > 100 | > 100
3 | CCn1cc(C(=O)O)c(=O)c2cc3c(cc21)OCO3 [OXOLINIC ACID] | 1.25 (≈ 4.79 µM) | > 40 | > 40 | 5 (≈ 19.1 µM) | < 0.625 | 1.25 (≈ 4.79 µM)

The next lines start with the values.

Row | MIC [1] [µg/mL] | MIC [2] [µg/mL] | MIC [3] [µg/mL] | MIC [4] [µg/mL] | MIC [5] [µg/mL] | MIC [6] [µg/mL] | Compound
4 | 20 (≈ 86.5 µM) | > 100 | > 100 | 40 (≈ 173 µM) | > 100 | 20 (≈ 86.5 µM) | CCn1cc(C(=O)O)c(=O)c2cc(C)ccc21
5 | 20 (≈ 79.5 µM) | > 40 | 100 (≈ 397 µM) | 100 (≈ 397 µM) | 10 (≈ 39.7 µM) | 20 (≈ 79.5 µM) | CCn1cc(C(=O)O)c(=O)c2cc(Cl)ccc21
6 | 1.25 (≈ 5.41 µM) | > 100 | > 100 | 40 (≈ 173 µM) | 10 (≈ 43.2 µM) | 2.5 (≈ 10.8 µM) | CCn1cc(C(=O)O)c(=O)c2ccc(C)cc21
7 | > 100 | > 100 | > 100 | > 100 | > 100 | > 100 | CCn1cc(C(=O)O)c(=O)c2cccc(C)c21
